Laboratory results as given in PubChem BioAssay (NCI).
Values joined by “and” are separate entries in the source; they are usually repeats but may differ in a detail not shown here. Identical values can stand only once.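 Interpolation was linear, between the two tested concentrations surrounding the appropriate level; five concentrations were tested over 48 hours in 96-well plates. Abbreviation: GI50, concentration required for 50% inhibition of growth. The concentration for full growth arrest is given as TGI.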

Legend:
Assay in all cases: NCI tumour cell line growth inhibition, 48 h
RXF 393 renal = system: RXF 393 renal
UACC-257 melanoma = system: UACC-257 melanoma
HCT-15 colon = system: HCT-15 colon
ACHN renal = system: ACHN renal
TK-10 renal = system: TK-10 renal
HL-60(TB) leukemia = system: HL-60(TB) leukemia
RPMI-8226 leukemia = system: RPMI-8226 leukemia
KM12 colon = system: KM12 colon
DU-145 prostate = system: DU-145 prostate
MDA-MB-435 = system: MDA-MB-435

SMILES	TGI (RXF 393 renal)	TGI (UACC-257 melanoma)	TGI (HCT-15 colon)	TGI (ACHN renal)	TGI (TK-10 renal)	TGI (HL-60(TB) leukemia)	TGI (RPMI-8226 leukemia)	TGI (KM12 colon)	GI50 (RXF 393 renal)	GI50 (DU-145 prostate)	TGI (DU-145 prostate)	GI50 (UACC-257 melanoma)	GI50 (HCT-15 colon)	GI50 (ACHN renal)	GI50 (MDA-MB-435)	TGI (MDA-MB-435)	GI50 (TK-10 renal)	GI50 (HL-60(TB) leukemia)	GI50 (RPMI-8226 leukemia)	GI50 (KM12 colon)
COCCOCOC(C)(C)[C@H](CCO)O[Si](c1ccccc1)(c1ccccc1)C(C)(C)C	17.8 µM	23.5 µM	17.5 µM	18.9 µM	23 µM	9.05 µM	35.5 µM	31.9 µM												
O=C1c2ccccc2C(=O)c2c1cc1c(c2[N+](=O)[O-])OCO1	2.04 µM	41.5 µM	8.82 µM	1.3 µM	6.39 µM	8.94 µM	0.916 µM	5.94 µM	0.506 µM	2.58 µM	8.43 µM	11.8 µM	2.15 µM	0.248 µM	2.91 µM	9.58 µM	2.38 µM	0.465 µM	0.267 µM	1.45 µM
CC(C)=CC(=O)OC1C2C(C)=CC(O)C(O)C2(C)C2C3(O)OCC24C(CC(=O)OC14)C(C)C3O (centres undefined)	0.933 µM	2.43 µM	6.84 µM			0.409 µM	0.131 µM	0.622 µM												
OC1COC(OCc2ccccc2)C(O)C1O (centres undefined)	> 100 µM	> 100 µM	> 100 µM	> 100 µM	> 100 µM	> 100 µM	> 100 µM	> 100 µM			> 100 µM					> 100 µM				
CC(C)=CCC/C(C)=C/CCC1(C)C=Cc2c(c3ccccc3oc2=O)O1 (centres undefined)	27.8 µM	31.2 µM	30.2 µM			> 75.8 µM	63.8 µM	33.2 µM												
C/C(=N\NC(=S)Nc1ccc([N+](=O)[O-])cc1)c1nc2ncccc2[nH]1		2.96 µM	9.04 µM		4.56 µM	> 100 µM	9.3 µM	> 100 µM			> 100 µM					4.42 µM				
Cc1cccc(CNc2ncnc3[nH]ncc23)c1	> 100 µM	> 100 µM	> 100 µM	> 100 µM	> 100 µM	> 100 µM	> 100 µM	> 100 µM			> 100 µM					> 100 µM				
COc1cc(/C=C/C2=C(C#N)C(=O)OC2(C)C)ccc1O	> 100 µM	> 100 µM	93.8 µM	> 100 µM	> 100 µM	> 100 µM	49.6 µM	> 100 µM												
CCCCCCCCCCCCC(O)C(=O)O (centres undefined)		> 100 µM	> 100 µM	> 100 µM	> 100 µM	> 100 µM	> 100 µM	> 100 µM			> 100 µM					> 100 µM				
O=C(O)CCCc1ccccc1	604 µM and > 1000 µM	> 1000 µM	342 µM and > 1000 µM	> 1000 µM	> 1000 µM	> 1000 µM	79.2 µM	366 µM and > 1000 µM	> 1000 µM	> 1000 µM	> 1000 µM	340 µM and > 1000 µM	> 1000 µM	436 µM and > 1000 µM	292 µM and > 1000 µM	> 1000 µM	285 µM and > 1000 µM	> 1000 µM	19.5 µM	> 1000 µM
C/C(N=NS(=O)(=O)c1ccc(C)cc1)=C1\C=CC=CN1O		> 100 µM	> 100 µM	> 100 µM	> 100 µM	> 100 µM	> 100 µM	> 100 µM												
COc1cc(C(=O)C2CC3(CCC2(O)c2cc(OC)c(OC)c(OC)c2)CC(=O)Nc2ccccc2C3=O)cc(OC)c1OC (centres undefined)	> 100 µM	> 100 µM	> 100 µM		> 100 µM	78.8 µM					> 100 µM					> 100 µM				
Cc1cn(C2CC(O)C(Cn3nncc3Cn3ncc(=O)[nH]c3=O)O2)c(=O)[nH]c1=O (centres undefined)	> 100 µM	> 100 µM	> 100 µM	> 100 µM	> 100 µM		> 100 µM	> 100 µM			> 100 µM					> 100 µM				
c1ccc2cc3c(cc2c1)OP1(Oc2cccc4cccnc24)(O3)Oc2cc3ccccc3cc2O1	> 100 µM	8.94 µM	> 100 µM			5.78 µM		21.8 µM												
Cc1c(C2=NN=C(N=Nc3c(O)cccc3O)/C2=C/c2ccccc2)c(=O)n(-c2ccccc2)n1C	> 100 µM	> 100 µM	> 100 µM			> 100 µM	> 100 µM	> 100 µM												
CC1SC(c2ccc(Cl)cc2)N(CCc2cccs2)C1=O (centres undefined)	2.94 µM	4.23 µM	3.59 µM	4.89 µM	3.4 µM	8.73 µM	4.55 µM	3.36 µM	1.56 µM	1.83 µM	4.87 µM	1.99 µM	1.56 µM	1.88 µM	1.51 µM	3.06 µM	1.68 µM	2.58 µM	1.33 µM	1.52 µM
